Measured values: PubChem BioAssay AID624437 (The Scripps Research Institute Molecular Screening Center, 2012)
Active and inactive are the calls of the source.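 The calls were made as follows: active = PP1 inhibition of at least 30% at 50 µM, though none qualified; inactive = the rest.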

target: Serine/threonine-protein phosphatase PP1-alpha catalytic subunit (Homo sapiens) (UniProt P62136); assay: PP1alpha phosphatase inhibition, phosphohistone substrate, late-stage follow-up, selectivity assay for PP5 inhibitor project, biochemical, 33P-phosphohistone, radiolabel, single concentration, round 5 (AID 624437); details: purified PP1alpha, 33P-phosphohistone dephosphorylation, scintillation; at 50 µM; active compounds read high
Sequence (P62136 whole entry, looked up): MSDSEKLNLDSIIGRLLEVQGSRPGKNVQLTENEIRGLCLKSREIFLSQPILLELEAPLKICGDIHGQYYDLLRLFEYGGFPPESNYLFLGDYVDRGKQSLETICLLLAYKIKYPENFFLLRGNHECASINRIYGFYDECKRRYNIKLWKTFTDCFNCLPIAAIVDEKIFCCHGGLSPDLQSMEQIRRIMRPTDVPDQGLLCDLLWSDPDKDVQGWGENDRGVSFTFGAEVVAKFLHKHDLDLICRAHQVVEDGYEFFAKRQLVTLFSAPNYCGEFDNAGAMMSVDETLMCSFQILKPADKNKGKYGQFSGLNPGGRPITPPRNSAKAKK

inhibition, inactive:
O=C(O)c1n[nH]nc1-c1ccccc1F 20.5%
O=C(O)c1n[nH]nc1-c1ccccc1O 10.9%
O=C(O)c1n[nH]nc1-c1cccc(F)c1 10.3%
COc1cccc(-c2n[nH]nc2C(=O)O)c1 11.1%
COc1ccccc1-c1n[nH]nc1C(=O)O 23.3%
COc1ccc(-c2n[nH]nc2C(=O)O)cc1 1.04%
O=C(O)c1n[nH]nc1-c1ccc(F)cc1 10.4%
